Entries after “also recorded” stand apart in the source; their conditions may differ.
How the values were obtained:
[1] = system: IGF-II secretion by differentiated C2C12 cells; assay: C2C12 differentiation and IGF-II secretion assay; type: cell-based, mouse; settings: 24 hrs treatment
Excerpt: C2C12 differentiation and IGF-II secretion assay (Wanderling, S. et al. GRP94 is essential for mesoderm induction and muscle development because it regulates insulin-like growth factor secretion. Mol. Biol. Cell 18, 3764-75 (2007); Ostrovsky, O., Ahmed, N.T. & Argon, Y. The chaperone activity of GRP94 toward insulin-like growth factor II is necessary for the stress response to serum deprivation. Mol. Biol. Cell 20, 1855-64 (2009)). C2C12 cells were maintained and cultured in DMEM in the presence of 10% FBS and 1% penicillin/streptomycin (Culture medium). C2C12 is an immortal line of mouse skeletal myoblasts originally derived from satellite cells from the thigh muscle of a two month old female mouse donor. These cells differentiate well into myocytes under appropriate culture conditions. […] Secreted IGF-II was quantified by using IGF-II mouse ELISA kit (Abcam, AB100696) according to the manufacturer's instructions. […] The bound IGF-II was detected with a biotinylated anti-IGF-II antibody. After the sequential incubation with HRP conjugated streptavidin, TMB One-step substrate reagent and the Stop solution, the absorbance was measured at 450 nm. The secreted IGF-II was quantified against a standard curve generated with recombinant IGF-II provided by the kit.

HEK293 cells = assay: Toxicity to HEK293 cells; type: cell-based, human
OE19 cells = assay: Cell viability assessment (CellTiter-Glo); type: cell-based
NCI-N87 cells = assay: Cell viability assessment (CellTiter-Glo); type: cell-based
[2] = system: EGFR overexpressing triple negative breast cancer cells; assay: Apoptosis (Annexin V / 7AAD, cleaved PARP) in triple negative breast cancer cells; type: cell-based
Protocol: The Grp94 inhibitors of the disclosure can be used to treat patients with EGFR overexpressing triple negative breast cancer. As shown in FIGS. 13a-c, EGFR overexpressing triple negative breast cancer cells are sensitive to the selective Grp94 inhibitor PU-WS13. The sensitivity of the EGFR overexpressing triple negative breast cancer cells was tested for the presence of apoptotic cells by Annexin V staining (13a, 13b) and by immunoblotting for the presence of cleaved PARP (13c). […] The Grp94 inhibitors of the disclosure can be used to treat patients with EGFR overexpressing pancreatic cancer. […]
Cell fractionation and immunoblotting. […] Protein concentrations were determined using BCA kit (Pierce) according to the manufacturer's instructions. […]
Cell cycle and apoptosis assessment. Cell cycle and apoptosis were assessed by flow cytometry after single staining with propidium iodide (PI, BD Pharmingen) or double staining with AnnexinV-FITC (BD Pharmingen) and 7AAD (BD Pharmingen), respectively. […] DNA content was measured by BD LSRII flow cytometer and cell further analyzed using program of cell cycle analysis in FloJo (Ashland, OR). […] Signals from FL1 and FL3 channels were collected by MACSQuant analyzer and further analyzed using FloJo. […]

[3] = system: TLR9 ligand CpG DNA induced TNF-α production in RAW 264.7 macrophages; assay: TNFα ELISA, CpG DNA stimulated macrophages; type: cell-based, mouse
LRP6 in the normal GI = assay: PD analysis of normal GI tissues (Western blot); type: in vivo, mouse

CC(C)NCCCn1c(Sc2cc(Cl)cc(Cl)c2)nc2c(N)ncnc21 [PU-WS13]
IGF-II secretion [1]: inhibited IGF-II secretion
toxicity to HEK293 cells (HEK293 cells): not toxic
sensitivity to Grp94 inhibition (OE19 cells): highly susceptible
sensitivity to Grp94 inhibition (NCI-N87 cells): highly susceptible
sensitivity (apoptosis, cleaved PARP) [2]: sensitive
CpG DNA induced TNF-α production [3]: inhibited this response in a concentration dependent manner; also recorded: inhibit
LRP6 levels in normal GI (LRP6 in the normal GI; 75 mg/kg): could not detect a significant decrease in LRP6
LRP6 levels in normal GI (LRP6 in the normal GI; 150 mg/kg): no acute tox or change in LRP6 levels
